The results in this text go back to patent publication US20070173478A1, “Compositions for the enhanced treatment of depression” (WWK TRUST, priority 2003, published 2007).

For the data set, the system named is chronic endogenous depression. The data set can be described thus: Case #1: patient with chronic endogenous depression. To be noted: person. It counts as in vivo, human.

For `CN(C)CC/C=C1\c2ccccc2CSc2ccccc21` [prothiaden], under “previous treatment”, the “effect of previous treatment” value was “relatively ineffective” and the “side effects of previous treatment” value was “complained of side effects”.

Turning to `CNCCC(Oc1ccc(C(F)(F)F)cc1)c1ccccc1` (stereo not drawn) [fluoxetine], where the note is “30 mg fluoxetine once daily, before the combination”, the “antidepressant effect of fluoxetine alone” value is “requiring increasing doses to sustain antidepressant effects”.
